From US5470873A, “Diabetes prevention and treatment using gamma-pyrones” (University Technologies International, Inc., priority 1994, dated 1995)

Experiments:
[1] = immunosuppressive therapy, humans; cited from earlier work
[2] = oral; flavoring agents for foods; cited from earlier work
pancreatic islets = assay: Histologic changes of pancreatic islets (hematoxylin and eosin); assay type: in vivo, NOD mice; settings: compared to untreated, diabetic NOD mice
From the text: Maltol-treated and untreated NOD mice were sacrificed and 25% of each pancreas was fixed in 6% Formalin. Paraffin-embedded sections were stained with hematoxylin and eosin and examined under an Olympus light microscope ^49. To see whether there are any histological differences between the pancreatic islets of DPD-treated and untreated NOD mice, the pancreatic islets of 35 week old mice were examined with the light microscope after staining with hematoxylin and eosin. […] The rest of their islets were rated as having either severe (22%), moderate (27%), mild (25%) or no (6%) insulitis. […] In addition, there were histopathological changes in their pancreatic islets that were rated as moderate (22% of examined islets), mild (30%) or as having no insulitis (15%).

[3] = Pancreatic insulin content (immunoreactive insulin, radioimmunoassay) in NOD mice; assay type: in vivo
Procedure: Insulin was extracted from the pancreas of non-obese diabetic (NOD) mouse by known methods ^33,34. Briefly, deep frozen pancreatic tissue (50% of each pancreas) was placed into phosphate buffered saline (PBS) and then extraction solution A (380 ml absolute alcohol, 20 ml H2 O, 8 ml concentrated HCl and some drops of alcoholic phenol red) was added. This mixture was homogenized with polytron type PT 10-20-[…] in glass tubes (15×125 mm) for 30 seconds in position 5. The homogenized material in the tubes was incubated at 4° C. for 10 hours. At the end of the incubation period, the homogenized material was centrifuged at 800 g for 5 minutes for clarification. The supernatant was saved. The pellet was re-extracted with 1 ml of extraction solution B (356 ml absolute alcohol, 124 ml H2 O and 7.5 ml HCl). The pellet in extraction solution B was incubated for 4 hours at 4° C. and then homogenized with a polytron as described above. The homogenized material was centrifuged at 800 g for 5 minutes. The supernatant was pooled with the supernatant from the first extraction. The pooled supernatant was neutralized with concentrated NH40 H (about 10 μl ) until the phenol red turned to purple. The neutralized supernatant was precipitated at 4° C. and then centrifuged at 800 g for 5 min. The supernatant, which contains insulin, was used for the measurement of insulin by radioimmunoassay. The concentration of immunoreactive insulin (IRI) in the pancreas from DPD-treated and untreated NOD mice was measured by radioimmunoassay techniques ^42-44 using mouse insulin as a standard. Briefly, the extracted samples from NOD mice were mixed with […], and anti-insulin antibody. The mixed materials were incubated for 2 hours at room temperature. At the end of the incubation period, anti-guinea pig IgG raised in sheep was added and the mixture was incubated for 30 minutes at room temperature. At the end of the incubation, the samples were centrifuged at 1500 g for 10 minutes. The supernatant was completely removed. The radioactivity of the pellets was measured. The percent of activity was determined by the following formula: [formula] On the basis of % activity in standards, a standard curve was constructed. The concentration of each unknown sample from maltol-treated or untreated NOD pancreas was read on the basis of the standard curve. […] The maltol-treated mice have insulin levels that are similar to the non-diabetic, untreated animals. About 75% of the maltol-treated mice have insulin levels over 80 μg/g pancreas and about 25% have insulin levels between 55-75 μg/g pancreas.

[4] = Inhibition of hydrogen peroxide induced free radical production (luminol chemiluminescence); assay type: biochemical; settings: for Chemiluminescence: 3 μM luminol, 20 μl H2O2, without maltol 11845.0 ± 1414.0
Procedure: One of the possible mechanisms for the destruction of pancreatic beta cells in autoimmune Type I diabetes is their damage by free radicals and cytokines released from macrophages and T lymphocytes. It is hypothesized that maltol can inhibit the action of these released radicals and thus prevent Type I diabetes. We measured the effect of maltol on the inhibition of free radicals produced by hydrogen peroxide.
Chemiluminescence produced by hydrogen peroxide was measured using a liquid scintillation counter (LKB 1217/1217 Rack Beta) set to the tritium channel. Briefly, luminol (5-amino-2,3-dihydro-l,4-phthalazinedione) was dissolved in dimethylsulfoxide and diluted with Krebs-Ringer bicarbonate buffer (pH 7.4) containing […] Hepes and no glucose. The final concentration of dimethylsulfoxide was 0.06 μl/ml. Under these assay conditions, 3 μM luminol and various amounts of hydrogen peroxide ranging from 5-20μl were mixed with 5 ml of Krebs-Ringer bicarbonate buffer, with or without maltol. Chemiluminescence was measured for a 30 second period beginning at 20 seconds after the addition of hydrogen peroxide.

[5] = Prevention of clinical diabetes (glycosuria) in NOD mice; assay type: in vivo
Procedure: (§1) NOD mice were dosed with maltol to evaluate its effect on the pathogenesis of type I diabetes. Mice received 5 mg maltol/mouse every other day from age 2 weeks until they were 20 weeks old. Maltol extracted from ginseng as described in Example 2 was used for the first 10 weeks, then maltol purchased from Sigma Co., St. Louis, MO was used thereafter. The mice were kept until they were 35 weeks old. Urine glucose was measured at 3-day intervals from 10 to 35 weeks of age. Urinary glucose and ketone levels were determined using Diastix and Ketostix reagent slips (Miles, Ontario, Canada). Individual mice were classified as being diabetic on the basis of positive glycosuria^38. […] In contrast, 78% of age-matched control mice (22 mice) spontaneously developed autoimmune diabetes. At 35 weeks of age, fasting (8 hours of fasting) and non-fasting blood glucose levels were measured. Blood was obtained from the retro-orbital venous plexus of fasting and nonfasting NOD mice. Glucose levels were measured enzymatically by the glucose oxidase method with o-dianisidine dihydrochloride as the reactive dye ^39-41 . The mean nonfasting blood glucose level of 35 ICR mice (nondiabetic control mice; NOD mice were derived from ICR mice) was 149±27 mg/dl. Any non-fasting mouse with a blood glucose level greater than 230 mg/dl (3 SD above the mean) was scored as diabetic. The mean fasting blood glucose level of 38 ICR mice was 137±28 mg/dl. Any fasting mouse with a blood glucose level greater than 221 mg/dl (3 SD above the mean) was scored as diabetic.

[6] = Blood glucose levels in NOD mice (glucose oxidase method); assay type: in vivo; settings: 35 weeks of age
Procedure: as §1

pancreatic beta cells = assay: Destruction of pancreatic beta cells detected by fluorescein labelled anti-insulin antibody; assay type: in vivo, NOD mice; settings: compared to untreated, diabetic NOD mice
Procedure: Fluorescein isothiocyanate-labelled anti-insulin antibody was prepared as described previously 45. Briefly, gamma globulin that was prepared by immunizing guinea pigs with glutaraldehyde polymerized porcine insulin and purified by Sephadex G-200 chromatography was purchased from Index Corp., Glenwood, Ill, USA. This material was labelled with FITC. Unconjugated FITC was removed by dialysis against 0.01M PBS (pH 7.5) and by gel filtration through a Sephadex G-25. The labelled gamma globulin was subsequently absorbed with acetone-treated mouse liver powder to eliminate nonspecific fluorescence. Pancreatic sections (from 25% of each pancreas) prepared from maltol-treated and untreated NOD mice were stained with FITC-labelled anti-insulin antibody and examined under a fluorescent microscope as described elsewhere 47.48. Briefly, pancreatic sections on the slides were flooded with FITC-labelled anti-insulin antibody and incubated in a humidity chamber overnight at 4° C. in the dark. The slides were then washed in three changes of cold PBS for a total of 20 min to remove any unattached antibody, mounted with Elvanol and observed with an Olympus fluorescence microscope ^45. As it is difficult to determine whether the lymphocytes observed in the pancreatic islets are contributing to beta cell destruction, another method was used to determine whether beta cells from maltol-treated or untreated NOD mice were destroyed or not. Sections of pancreatic islets were stained with a fluorescein-labelled anti-insulin antibody and the number of insulin-containing beta cells in the islets was estimated.

Compound | Effect on course of IDDM [1] | Toxicity when taken orally [2] | Lymphocytic infiltration of the pancreatic islets (in words) (pancreatic islets) | Pancreatic insulin / protection from beta cell destruction (in words) ([3]; NOD mice) | Pancreatic insulin level ([3]; about 25% of the maltol-treated mice) | Pancreatic insulin level ([3]; about 75% of the maltol-treated mice, majority of untreated less than 10 μg/g) | Percent inhibition of free radical production ([4]; 0.2 mM maltol) [%] | Chemiluminescence ([4]; 0.2 mM maltol) [cpm] | Percent inhibition of free radical production ([4]; 2.0 mM maltol) [%] | Chemiluminescence ([4]; 2.0 mM maltol) [cpm] | Percent inhibition of free radical production ([4]; 80 mM maltol) [%] | Chemiluminescence ([4]; 80 mM maltol) [cpm] | Success in preventing clinical diabetes [5] [%] | Mice showing signs of clinical diabetes ([5]; 5 mg/mouse every other day, age 2 to 20 weeks, urine glucose 10 to 35 weeks, untreated 78%) [%] | Prevention / recurrence of clinical diabetes (in words) ([5]; observed to 35 weeks, incl. 15 weeks after cessation of treatment) | Mean fasting blood glucose ([6]; fasting (8 hours), untreated diabetic 334±47) [mg/dL] | Mean non-fasting blood glucose ([6]; non-fasting, untreated diabetic 342±45) [mg/dL] | Destruction of pancreatic beta cells (in words) (pancreatic beta cells)
O=P1(N(CCCl)CCCl)NCCCO1 (stereo not shown) [cyclophosphamide] | did not alter the course of the disease |  |  |  |  |  |  |  |  |  |  |  |  |  |  |  |  | 
CCc1occc(=O)c1O [ethyl maltol] |  | very low toxicities when taken orally |  |  |  |  |  |  |  |  |  |  |  |  |  |  |  | 
Cc1occc(=O)c1O [maltol, 3-Hydroxy-2-methyl-4-pyrone] |  | very low toxicities when taken orally | much less lymphocytic infiltration of the pancreatic islets | substantial protection from beta cell destruction | 55-75 μg/g pancreas | over 80 μg/g pancreas | 60 | 4829.3 ± 792.1 | 98 | 210. ± 55.1 | 99.7 | 31.6 ± 3.1 | 100 | 0 | can prevent clinical diabetes completely | 92 ± 17 | 132 ± 19 | significantly less destruction of pancreatic beta cells
